This is an account of results in paper PMC3758437 (Kidney international, 2013).

Counter-ions that a name gives are not always drawn. Like-named read-outs stand apart in the source and are kept apart here.

Data set [1] relates to plasma proteins. In kind it is in vitro ADME. The following applies: human, plasma (ultrafiltration).
The conditions of data set [2]: normal subjects; LC/MS/MS assay; mean±sd.
Data set [3] has as its system plasma proteins. Kind of data set: Free fraction by stable isotope dilution LC/MS/MS assay. Conditions: human, plasma (ultrafiltration).

Compound `Cn1c(=O)c2c([nH]c(=O)n2C)n(C)c1=O` [1,3,7-Trimethyluric acid] had an unbound share (fraction unbound) in the data set on plasma proteins [1] of 0.09 ± 0.03.
As to `Cn1c(=O)[nH]c2[nH]c(=O)n(C)c2c1=O` [1,7-Dimethyluric acid], the fraction unbound in the data set on plasma proteins [1] worked out at 0.39 ± 0.3.
The same measure, in the same setting: next, `O=C(O)CNC(=O)c1ccco1` [2-Furoylglycine]: 0.49; `O=C(O)CCCCC(=O)O` [Adipic acid]: 0.04 ± 0.01.
For the compound `CN1CC(=O)NC1=N` [Creatinine], the “Plasma Free Concentration” value in data set [2] worked out at 74 ± 13 µM.
For `O=C(O)CNC(=O)c1ccccc1` [Hippurate], the fraction unbound with plasma proteins [1] turned out to be 0.27 ± 0.05; in the data set on plasma proteins [3], 0.41 ± 0.02. Moreover, in data set [2], the “Plasma Free Concentration” value was 1.5 ± 0.9 µM.
`O=S(=O)(O)Oc1c[nH]c2ccccc12` [Indoxyl sulfate]: the fraction unbound with plasma proteins [1] is 0.02 ± 0.01; in the data set on plasma proteins [3], 0.027 ± 0.004. In addition, the “Plasma Free Concentration” value in data set [2] was 0.13 ± 0.05 µM.
In the data set on plasma proteins [1], `CC(CC(=O)O)C(=O)O` (stereo not drawn) [Methylsuccinic acid] came in with an unbound share (fraction unbound) of 0.11 ± 0.04.
`O=C(O)CCCCCCC(=O)O` [Suberic acid]: the fraction unbound in the data set on plasma proteins [1] came to 0.07 ± 0.02.
As to `NC(N)=O` [Urea], the “Plasma Free Concentration” value in data set [2] is recorded as 2.4 ± 0.6×10^3 μM.
Still for that read-out and setting: next, `Cc1ccc(OS(=O)(=O)O)cc1` [p-Cresol sulfate]: 0.46 ± 0.26 µM.

The term fraction unbound denotes free concentration divided by total concentration. Read a high fraction unbound as much free substance.
